The CheMixHub viscosity set

Assay: xn = mol fraction of the nth substance listed
Details: 101.33 kPa

NCCCN + OCCOCCOCCOCCO
viscosity [mPa·s]
Details | 303.15 K | 308.15 K | 313.15 K | 318.15 K
x2 = 0.0197 | – | 1.6 | 1.31 | 1.26
x2 = 0.0407 | – | 1.86 | – | 1.48
x2 = 0.0631 | – | 2.25 | 1.97 | 1.75
x2 = 0.0871 | – | 2.64 | 2.34 | 2.08
x2 = 0.1129 | – | 3.21 | 2.83 | 2.48
x2 = 0.1406 | – | 3.92 | 3.42 | 3
x2 = 0.1705 | – | 4.86 | 4.2 | 3.62
x2 = 0.2028 | – | 6.05 | 5.2 | 4.42
x2 = 0.238 | – | 7.62 | 6.48 | 5.45
x2 = 0.2762 | – | 9.67 | 8.11 | 6.84
x2 = 0.3181 | – | 12.4 | 10.3 | 8.42
x2 = 0.3641 | – | 15.8 | 12.8 | 10.5
x2 = 0.4148 | – | 20.1 | 16.1 | 13
x2 = 0.4711 | – | 24.9 | 19.7 | 15.8
x2 = 0.5338 | – | 30 | 23.5 | 18.7
x2 = 0.6042 | – | 34 | 26.8 | 21
x2 = 0.6838 | – | 36 | 28.4 | 22.4
x2 = 0.7745 | – | 35.5 | 28.3 | 22.5
x2 = 0.8788 | 41 | 32.7 | 26.4 | 21.1
